Results: ChEMBL document CHEMBL3734705, “Synthesis and in vitro cytotoxicity of novel C-12 substituted-14-deoxy-andrographolide derivatives as potent anti-cancer agents” (2015)
Active and inactive are the calls of the source. The calls are words filed in the database; no cut-off is given here.

Assays:
[1] = tested on: U-251; assay: Cytotoxicity against human U251 cells after 48 hrs by SRB assay; assay type: functional; conditions: U-251, 48 h
[2] = tested on: NCI-H460; assay: Cytotoxicity against human NCI-H460 cells after 48 hrs by SRB assay; assay type: functional; conditions: NCI-H460, 48 h
[3] = tested on: KM12; assay: Cytotoxicity against human KM12 cells after 48 hrs by SRB assay; assay type: functional; conditions: KM12, 48 h
[4] = tested on: MDA-MB-231; assay: Cytotoxicity against human MDA-MB-231 cells after 48 hrs by SRB assay; assay type: functional; conditions: MDA-MB-231, 48 h
[5] = Cytotoxicity against human NCI-ADR-RES cells assessed as growth level at 10 uM after 48 hrs by SRB assay; assay type: functional
[6] = Cytotoxicity against human RPMI8226 cells assessed as growth level at 10 uM after 48 hrs by SRB assay; assay type: functional, RPMI-8226
[7] = tested on: A498; assay: Cytotoxicity against human A498 cells assessed as growth level at 10 uM after 48 hrs by SRB assay; assay type: functional
[8] = tested on: K562; assay: Cytotoxicity against human K562 cells assessed as growth level at 10 uM after 48 hrs by SRB assay; assay type: functional
[9] = Cytotoxicity against human SF295 cells after 48 hrs by SRB assay; assay type: functional; conditions: SF-295, 48 h
[10] = tested on: K562; assay: Cytotoxicity against human K562 cells after 48 hrs by SRB assay; assay type: functional; conditions: K562, 48 h
[11] = Cytotoxicity against human MOLT4 cells after 48 hrs by SRB assay; assay type: functional; conditions: MOLT-4, 48 h
[12] = Cytotoxicity against human PC3 cells after 48 hrs by SRB assay; assay type: functional; conditions: PC-3, 48 h
[13] = Cytotoxicity against human UACC257 cells assessed as growth level at 10 uM after 48 hrs by SRB assay; assay type: functional, UACC-257
[14] = Cytotoxicity against human HL-60(TB) cells after 48 hrs by SRB assay; assay type: functional; conditions: HL-60, 48 h
[15] = Cytotoxicity against human SW620 cells assessed as growth level at 10 uM after 48 hrs by SRB assay; assay type: functional, SW-620
[16] = Cytotoxicity against human SF268 cells assessed as growth level at 10 uM after 48 hrs by SRB assay; assay type: functional, SF-268
[17] = Cytotoxicity against human IGROV1 cells after 48 hrs by SRB assay; assay type: functional; conditions: IGROV-1, 48 h
[18] = Cytotoxicity against human SNB19 cells assessed as growth level at 10 uM after 48 hrs by SRB assay; assay type: functional, SNB-19
[19] = tested on: MCF7; assay: Cytotoxicity against human MCF7 cells after 48 hrs by SRB assay; assay type: functional; conditions: MCF7, 48 h
[20] = Cytotoxicity against human OVCAR8 cells assessed as growth level at 10 uM after 48 hrs by SRB assay; assay type: functional, OVCAR-8
[21] = tested on: CCRF-CEM; assay: Cytotoxicity against human CCRF-CEM cells after 48 hrs by SRB assay; assay type: functional
[22] = Cytotoxicity against human HOP62 cells assessed as growth level at 10 uM after 48 hrs by SRB assay; assay type: functional, HOP-62
[23] = tested on: SK-MEL-5; assay: Cytotoxicity against human SK-MEL-5 cells assessed as growth level at 10 uM after 48 hrs by SRB assay; assay type: functional
[24] = tested on: NCI-H23; assay: Cytotoxicity against human NCI-H23 cells assessed as growth inhibition at 10 uM after 48 hrs by SRB assay; assay type: functional; conditions: NCI-H23, 48 h, read-out: GI
[25] = tested on: M14; assay: Cytotoxicity against human M14 cells assessed as growth inhibition at 10 uM after 48 hrs by SRB assay; assay type: functional; conditions: M14, 48 h, read-out: GI
[26] = tested on: T47D; assay: Cytotoxicity against human T47D cells assessed as growth inhibition at 10 uM after 48 hrs by SRB assay; assay type: functional; conditions: read-out: GI
[27] = tested on: HT-29; assay: Cytotoxicity against human HT-29 cells assessed as growth inhibition at 10 uM after 48 hrs by SRB assay; assay type: functional; conditions: HT-29, 48 h, read-out: GI
[28] = Cytotoxicity against human BT549 cells assessed as growth inhibition at 10 uM after 48 hrs by SRB assay; assay type: functional; conditions: BT-549, 48 h, read-out: GI
[29] = Cytotoxicity against human HL-60(TB) cells assessed as growth inhibition at 10 uM after 48 hrs by SRB assay; assay type: functional; conditions: HL-60, 48 h, read-out: GI
[30] = Cytotoxicity against human Hs578T cells assessed as growth inhibition at 10 uM after 48 hrs by SRB assay; assay type: functional; conditions: Hs-578T, read-out: GI
[31] = Cytotoxicity against human LOXIMVI cells assessed as growth inhibition at 10 uM after 48 hrs by SRB assay; assay type: functional; conditions: LOX IMVI, read-out: GI
[32] = Cytotoxicity against human MOLT4 cells assessed as growth inhibition at 10 uM after 48 hrs by SRB assay; assay type: functional; conditions: MOLT-4, 48 h, read-out: GI
[33] = tested on: Malme-3M; assay: Cytotoxicity against human MALME-3M cells assessed as growth inhibition at 10 uM after 48 hrs by SRB assay; assay type: functional; conditions: read-out: GI
[34] = tested on: MDA-MB-231; assay: Cytotoxicity against human MDA-MB-231 cells assessed as growth inhibition at 10 uM after 48 hrs by SRB assay; assay type: functional
[35] = Cytotoxicity against human UACC62 cells assessed as growth inhibition at 10 uM after 48 hrs by SRB assay; assay type: functional; conditions: UACC-62, 48 h, read-out: GI
[36] = Cytotoxicity against human UO31 cells assessed as growth inhibition at 10 uM after 48 hrs by SRB assay; assay type: functional; conditions: UO-31, 48 h, read-out: GI
[37] = Cytotoxicity against human HCT116 cells assessed as growth inhibition at 10 uM after 48 hrs by SRB assay; assay type: functional; conditions: HCT-116, 48 h, read-out: GI
[38] = Cytotoxicity against human TK10 cells assessed as growth inhibition at 10 uM after 48 hrs by SRB assay; assay type: functional; conditions: TK-10, 48 h, read-out: GI
[39] = Cytotoxicity against human PC3 cells assessed as growth inhibition at 10 uM after 48 hrs by SRB assay; assay type: functional; conditions: PC-3, 48 h, read-out: GI
[40] = read-out: LC50 (the source's name)

C=C1CC[C@@H]2[C@](C)(COC(C)=O)[C@H](OC(C)=O)CC[C@@]2(C)[C@@H]1CC(Sc1ccccc1)C1=CCOC1=O (mixture of isomers)
GI50 [1]: 1.56 µM | LC50 (concentration giving 50% net cell kill) [1]: 5.62 µM | TGI [1]: 2.96 µM | GI50 [2]: 2.24 µM | TGI [2]: 6.03 µM | CC50 [2, 40]: > 100 µM | GI50 [3]: 1.4 µM | LC50 [3]: 6.25 µM | TGI [3]: 2.96 µM | GI50 [4]: 2.47 µM | LC50 [4]: > 100 µM | TGI [4]: 6.29 µM | Activity [5]: 10.07% | Activity [6]: -4.72% | Activity [7]: 86.34% | Activity [8]: 3.95% | GI50 [9]: 4.12 µM | LC50 [9]: > 100 µM | TGI [9]: 27.3 µM | GI50 [10]: 0.69 µM | LC50 (50% lethal concentration) [10]: 45.7 µM | TGI [10]: 3.69 µM | GI50 [11]: 1.48 µM | LC50 [11]: > 100 µM | TGI [11]: 6.15 µM | GI50 [12]: 1.84 µM | LC50 [12]: > 100 µM | TGI [12]: 10.1 µM | Activity [13]: 29.37% | GI50 [14]: 0.49 µM | TGI [14]: 2.27 µM | CC50 [14, 40]: 9.76 µM | Activity [15]: 0.83% | Activity [16]: 11.62% | GI50 [17]: 1.87 µM | TGI [17]: 4.28 µM | Activity [18]: 51.79% | GI50 [19]: 0.53 µM | LC50 (50% lethal concentration) [19]: 7.27 µM | TGI [19]: 2.35 µM | Activity [20]: 11.88% | GI50 [21]: 0.26 µM | TGI [21]: 1.19 µM | CC50 [21, 40]: > 100 µM | Activity [22]: -18.21% | Activity [23]: 13.51%

C=C1CC[C@@H]2[C@](C)(COC(C)=O)[C@H](OC(C)=O)CC[C@@]2(C)[C@@H]1CC(NCCCC)C1=CCOC1=O (mixture of isomers)
Activity [5]: 87.27% | Activity [6]: 60.49% | Activity [7]: 75.44% | Activity [8]: 69.53% | inhibition of growth at 10 µM [24]: 10.3% | inhibition of growth at 10 µM [25]: 7.25% | Activity [13]: 85.16% | inhibition of growth at 10 µM [26]: 28% | inhibition of growth at 10 µM [27]: 17.4% | Activity [15]: 95.01% | Activity [16]: 76.97% | inhibition of growth at 10 µM [28]: 10.8% | inhibition of growth at 10 µM [29]: 6.18% | Activity [18]: 87.32% | inhibition of growth at 10 µM [30]: 2.32% | inhibition of growth at 10 µM [31]: 9.61% | inhibition of growth at 10 µM [32]: 44.5% | inhibition of growth at 10 µM [33]: 2.43% | Activity [20]: 89.63% | inhibition of growth at 10 µM ([34]; MDA-MB-231, 48 h, read-out: GI): 20.9% | inhibition of growth at 10 µM [35]: 27.6% | inhibition of growth at 10 µM [36]: 16% | inhibition of growth at 10 µM [37]: 19.8% | Activity [22]: 93.96% | inhibition of growth at 10 µM [38]: 0.94% | Activity [23]: 76.02% | inhibition of growth at 10 µM [39]: 48.8%

C=C1CC[C@@H]2[C@](C)(CO)[C@H](O)CC[C@@]2(C)[C@@H]1C/C=C1/C(=O)OC[C@H]1O [ANDROGRAPHOLIDE]
Activity [5]: 83.75% | Activity [6]: 83.28% | Activity [7]: 87.79% | Activity [8]: 65.53% | inhibition of growth at 10 µM [24]: 2.11% | inhibition of growth at 10 µM [25]: 15.1% | Activity [13]: 76.51% | inhibition of growth at 10 µM [26]: 12.2% | inhibition of growth at 10 µM [27]: 73% | Activity [15]: 44.29% | Activity [16]: 97.66% | inhibition of growth at 10 µM [28]: 12.9% | Activity [18]: 88.03% | inhibition of growth at 10 µM [31]: 78.2% | inhibition of growth at 10 µM [32]: 1.89% | inhibition of growth at 10 µM [33]: 0.22% | Activity [20]: 84.48% | growth inhibition (GI) [34]: inactive | inhibition of growth at 10 µM [35]: 30.1% | inhibition of growth at 10 µM [36]: 10.4% | inhibition of growth at 10 µM [37]: 40% | Activity [22]: 96.27% | inhibition of growth at 10 µM [38]: 2.51% | Activity [23]: 77.27% | inhibition of growth at 10 µM [39]: 6.6%
